Experimental findings from patent publication US5219825A, “Synergistic herbicidal compositions comprising herbicides which generate toxic oxygen radicals and chelating agents which inhibit their detoxification” (Yeda Research and Development Co., Ltd., priority 1986, dated 1993) are described below.

For this test, the system named is leaves. Briefly: Blocked chelate controls tested for synergism with paraquat. The format is in vivo. The source says: The commercial fungicides, maneb [manganese ethylene-bis(dithiocarbamate) (polymeric)] and zineb [zinc ethylene-bis (dithiocarbamate) (polymeric)] were used, they have similar structures and effects as DDC, but are blocked and act as chelate controls […] to clarify that a synergism would be due to the chelating effect of diethyldithiocarbamate. […] They could not chelate copper due to their being blocked.

On to “zinc ethylene-bis (dithiocarbamate) (polymeric) [zineb]”, for which the “synergistic effects with paraquat” value was “Neither maneb nor zineb had synergistic effects with paraquat”.
